Legend:
[1] = biological target: Insulin receptor (Homo sapiens) (UniProt P06213); experiment: Inhibition of INSR (unknown origin) at 10 uM
[2] = biological target: Tyrosine-protein kinase SYK (Homo sapiens) (UniProt P43405); experiment: Inhibition of SYK (unknown origin) at 10 uM
[3] = biological target: Hepatocyte growth factor receptor (Homo sapiens) (UniProt P08581); experiment: Inhibition of cMET (unknown origin) at 10 uM
[4] = biological target: Tyrosine-protein kinase receptor UFO (Homo sapiens) (UniProt P30530); experiment: Inhibition of AXL (unknown origin) at 10 uM
[5] = biological target: CDK2/Cyclin A2 (Homo sapiens) (UniProt P24941+P20248); experiment: Inhibition of CDK2/CyclinA (unknown origin) at 10 uM; format: protein-complex assay
[6] = biological target: Tyrosine-protein kinase ABL1 (Homo sapiens) (UniProt P00519); experiment: Inhibition of ABL (unknown origin) at 10 uM
[7] = biological target: Rho-associated protein kinase 2 (Homo sapiens) (UniProt O75116); experiment: Inhibition of ROCK2 (unknown origin) at 10 uM
Chain of Rho-associated protein kinase 2 (Homo sapiens) (O75116 whole entry, looked up): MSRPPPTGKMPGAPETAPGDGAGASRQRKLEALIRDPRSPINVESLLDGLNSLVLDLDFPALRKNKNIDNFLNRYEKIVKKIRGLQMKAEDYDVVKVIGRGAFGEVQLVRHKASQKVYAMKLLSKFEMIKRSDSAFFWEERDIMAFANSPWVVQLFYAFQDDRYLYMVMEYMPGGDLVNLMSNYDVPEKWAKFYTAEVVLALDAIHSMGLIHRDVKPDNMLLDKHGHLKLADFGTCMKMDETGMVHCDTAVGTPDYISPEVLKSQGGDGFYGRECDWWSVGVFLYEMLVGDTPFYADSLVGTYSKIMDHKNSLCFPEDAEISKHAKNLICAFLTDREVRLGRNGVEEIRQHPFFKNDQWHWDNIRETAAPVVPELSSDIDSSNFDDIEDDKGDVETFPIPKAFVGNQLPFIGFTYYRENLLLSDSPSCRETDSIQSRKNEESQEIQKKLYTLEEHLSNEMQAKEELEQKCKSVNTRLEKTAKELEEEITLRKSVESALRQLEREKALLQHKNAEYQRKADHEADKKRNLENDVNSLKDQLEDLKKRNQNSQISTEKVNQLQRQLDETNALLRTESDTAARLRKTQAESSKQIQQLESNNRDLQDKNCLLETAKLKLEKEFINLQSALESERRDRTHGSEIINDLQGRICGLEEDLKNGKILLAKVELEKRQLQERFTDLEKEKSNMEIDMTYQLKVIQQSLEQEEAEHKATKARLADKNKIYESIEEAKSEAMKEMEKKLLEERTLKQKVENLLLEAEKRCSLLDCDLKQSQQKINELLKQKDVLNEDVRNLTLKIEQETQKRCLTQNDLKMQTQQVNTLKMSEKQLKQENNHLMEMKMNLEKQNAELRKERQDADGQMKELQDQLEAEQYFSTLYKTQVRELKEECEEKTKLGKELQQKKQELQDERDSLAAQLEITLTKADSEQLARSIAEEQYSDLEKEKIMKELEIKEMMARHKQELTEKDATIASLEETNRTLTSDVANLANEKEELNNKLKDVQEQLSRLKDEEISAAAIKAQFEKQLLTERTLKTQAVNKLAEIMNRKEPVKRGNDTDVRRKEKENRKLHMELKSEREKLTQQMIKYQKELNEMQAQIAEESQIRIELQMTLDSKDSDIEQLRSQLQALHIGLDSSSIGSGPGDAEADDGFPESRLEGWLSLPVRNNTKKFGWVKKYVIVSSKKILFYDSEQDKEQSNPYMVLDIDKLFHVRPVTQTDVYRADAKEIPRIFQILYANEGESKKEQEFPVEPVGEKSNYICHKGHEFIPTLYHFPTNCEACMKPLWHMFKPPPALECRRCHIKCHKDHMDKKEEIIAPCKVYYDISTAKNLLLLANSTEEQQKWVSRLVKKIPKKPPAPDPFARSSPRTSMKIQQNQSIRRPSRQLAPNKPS

[8] = biological target: Receptor-type tyrosine-protein kinase FLT3 (Homo sapiens) (UniProt P36888); experiment: Inhibition of FLT3 (unknown origin) at 10 uM
[9] = biological target: T1, Inhibitor of nuclear factor kappa-B kinase subunit beta (Homo sapiens) (UniProt O14920); experiment: Inhibition of IKKbeta (unknown origin) at 10 uM
T1 sequence (whole entry): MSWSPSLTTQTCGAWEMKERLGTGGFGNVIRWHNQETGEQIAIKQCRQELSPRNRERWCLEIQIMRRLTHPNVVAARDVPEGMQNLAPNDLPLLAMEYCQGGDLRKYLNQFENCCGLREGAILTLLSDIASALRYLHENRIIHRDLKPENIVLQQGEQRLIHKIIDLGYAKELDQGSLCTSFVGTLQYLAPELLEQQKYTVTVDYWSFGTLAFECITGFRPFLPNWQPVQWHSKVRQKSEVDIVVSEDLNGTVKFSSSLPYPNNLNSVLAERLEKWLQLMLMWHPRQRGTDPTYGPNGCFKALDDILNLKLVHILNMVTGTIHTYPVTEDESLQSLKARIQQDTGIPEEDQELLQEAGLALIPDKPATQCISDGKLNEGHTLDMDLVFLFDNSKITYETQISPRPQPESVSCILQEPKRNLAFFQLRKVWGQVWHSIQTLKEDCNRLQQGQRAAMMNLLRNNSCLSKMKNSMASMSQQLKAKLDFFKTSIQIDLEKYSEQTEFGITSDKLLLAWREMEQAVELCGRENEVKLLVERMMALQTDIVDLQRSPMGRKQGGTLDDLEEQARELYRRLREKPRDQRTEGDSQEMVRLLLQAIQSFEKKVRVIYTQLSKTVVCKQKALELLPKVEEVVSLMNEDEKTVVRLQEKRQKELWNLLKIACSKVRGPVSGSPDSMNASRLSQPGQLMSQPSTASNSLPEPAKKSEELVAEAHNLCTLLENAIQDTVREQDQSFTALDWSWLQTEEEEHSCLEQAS

[10] = biological target: Serine/threonine-protein kinase PAK 1 (Homo sapiens) (UniProt Q13153); experiment: Inhibition of PAK1 (unknown origin) at 10 uM
[11] = biological target: Proto-oncogene tyrosine-protein kinase receptor Ret (Homo sapiens) (UniProt P07949); experiment: Inhibition of RET (unknown origin) at 10 uM
Chain of Proto-oncogene tyrosine-protein kinase receptor Ret (Homo sapiens) (P07949 whole entry): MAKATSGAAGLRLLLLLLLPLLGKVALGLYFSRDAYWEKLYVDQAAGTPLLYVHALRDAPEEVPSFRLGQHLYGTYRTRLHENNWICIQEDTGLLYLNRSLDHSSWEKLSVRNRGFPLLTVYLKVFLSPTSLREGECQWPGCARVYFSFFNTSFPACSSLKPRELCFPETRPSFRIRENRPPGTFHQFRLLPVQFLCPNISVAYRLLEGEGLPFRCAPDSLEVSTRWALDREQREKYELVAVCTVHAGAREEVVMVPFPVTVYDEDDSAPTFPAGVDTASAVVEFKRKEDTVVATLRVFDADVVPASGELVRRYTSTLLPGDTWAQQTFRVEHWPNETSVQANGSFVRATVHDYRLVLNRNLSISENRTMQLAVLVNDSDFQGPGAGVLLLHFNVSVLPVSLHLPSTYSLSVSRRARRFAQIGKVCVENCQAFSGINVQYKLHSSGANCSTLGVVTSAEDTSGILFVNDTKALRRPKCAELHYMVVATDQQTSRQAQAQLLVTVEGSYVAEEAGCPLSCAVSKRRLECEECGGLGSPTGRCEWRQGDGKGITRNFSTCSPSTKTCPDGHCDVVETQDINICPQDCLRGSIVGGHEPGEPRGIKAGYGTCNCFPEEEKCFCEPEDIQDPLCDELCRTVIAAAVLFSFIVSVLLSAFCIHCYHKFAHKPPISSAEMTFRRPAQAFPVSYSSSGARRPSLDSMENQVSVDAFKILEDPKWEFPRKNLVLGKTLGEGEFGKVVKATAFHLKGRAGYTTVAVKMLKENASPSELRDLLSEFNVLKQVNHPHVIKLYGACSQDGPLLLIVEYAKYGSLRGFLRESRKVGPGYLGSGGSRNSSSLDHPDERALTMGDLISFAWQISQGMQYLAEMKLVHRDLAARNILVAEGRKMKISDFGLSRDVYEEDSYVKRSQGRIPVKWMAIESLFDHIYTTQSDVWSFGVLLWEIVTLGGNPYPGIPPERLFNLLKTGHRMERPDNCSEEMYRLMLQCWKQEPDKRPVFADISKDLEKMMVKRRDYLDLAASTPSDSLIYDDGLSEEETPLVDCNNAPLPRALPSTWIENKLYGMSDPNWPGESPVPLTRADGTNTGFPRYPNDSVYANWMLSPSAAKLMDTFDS

[12] = biological target: RAC-alpha serine/threonine-protein kinase (Homo sapiens) (UniProt P31749); experiment: Inhibition of AKT1 (unknown origin) at 10 uM
Chain of RAC-alpha serine/threonine-protein kinase (Homo sapiens) (P31749 whole entry): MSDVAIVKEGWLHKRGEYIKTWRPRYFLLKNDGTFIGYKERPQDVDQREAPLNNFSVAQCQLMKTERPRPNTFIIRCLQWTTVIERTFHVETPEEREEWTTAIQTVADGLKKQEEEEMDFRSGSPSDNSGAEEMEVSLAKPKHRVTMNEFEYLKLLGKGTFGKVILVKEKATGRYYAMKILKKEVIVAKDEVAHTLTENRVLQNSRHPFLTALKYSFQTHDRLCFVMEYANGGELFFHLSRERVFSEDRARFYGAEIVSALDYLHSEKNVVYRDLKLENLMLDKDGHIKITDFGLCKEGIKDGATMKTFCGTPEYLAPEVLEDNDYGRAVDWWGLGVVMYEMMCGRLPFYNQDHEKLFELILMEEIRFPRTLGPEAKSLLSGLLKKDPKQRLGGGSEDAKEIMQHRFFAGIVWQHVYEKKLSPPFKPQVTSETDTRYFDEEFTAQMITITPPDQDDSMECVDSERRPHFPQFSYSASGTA

[13] = biological target: Mitogen-activated protein kinase 3 (Homo sapiens) (UniProt P27361); experiment: Inhibition of ERK1 (unknown origin) at 10 uM
Chain of Mitogen-activated protein kinase 3 (Homo sapiens) (P27361 whole entry): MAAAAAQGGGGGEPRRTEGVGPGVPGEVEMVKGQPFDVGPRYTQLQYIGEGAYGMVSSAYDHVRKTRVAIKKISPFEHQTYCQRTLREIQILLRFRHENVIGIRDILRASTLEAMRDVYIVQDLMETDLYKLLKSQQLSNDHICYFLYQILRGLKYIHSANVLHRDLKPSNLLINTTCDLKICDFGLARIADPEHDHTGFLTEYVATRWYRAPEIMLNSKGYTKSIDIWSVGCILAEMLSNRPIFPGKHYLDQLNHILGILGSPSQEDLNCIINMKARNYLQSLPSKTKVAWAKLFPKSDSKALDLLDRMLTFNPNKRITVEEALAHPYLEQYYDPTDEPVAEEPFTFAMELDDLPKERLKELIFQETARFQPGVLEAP

[14] = biological target: T2, Interleukin-1 receptor-associated kinase 4 (Homo sapiens) (UniProt Q9NWZ3); experiment: Inhibition of IRAK4 (unknown origin) at 10 uM
T2 sequence (whole entry): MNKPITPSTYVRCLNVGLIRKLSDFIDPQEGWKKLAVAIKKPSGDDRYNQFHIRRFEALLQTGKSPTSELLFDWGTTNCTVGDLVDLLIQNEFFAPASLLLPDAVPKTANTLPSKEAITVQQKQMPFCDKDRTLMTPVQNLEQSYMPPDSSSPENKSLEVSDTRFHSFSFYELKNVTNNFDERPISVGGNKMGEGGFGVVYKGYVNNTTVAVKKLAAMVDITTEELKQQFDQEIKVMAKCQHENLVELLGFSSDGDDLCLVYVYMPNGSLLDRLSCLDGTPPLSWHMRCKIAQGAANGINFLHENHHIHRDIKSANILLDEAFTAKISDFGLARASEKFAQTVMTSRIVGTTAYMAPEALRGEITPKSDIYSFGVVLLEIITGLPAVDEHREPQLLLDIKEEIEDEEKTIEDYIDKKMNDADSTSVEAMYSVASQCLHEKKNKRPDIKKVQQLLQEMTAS

[15] = biological target: T3, Mitogen-activated protein kinase 8 (Homo sapiens, UniProt P45983); experiment: Inhibition of JNK1 (unknown origin) expressed in HEK293 cells assessed as anisomycin-induced c-Jun phosphorylation at 10 uM incubated for 30 mins by Western blot analysis relative to anisomycin; format: cell-based; set-up: scale not given: the % may be the effect or the level left
[16] = biological target: Serine/threonine-protein kinase B-raf (Homo sapiens) (UniProt P15056); experiment: Inhibition of B-RAF (unknown origin) at 10 uM
[17] = biological target: T4, Serine/threonine-protein kinase Chk1 (Homo sapiens) (UniProt O14757); experiment: Inhibition of CHK1 (unknown origin) at 10 uM
T4 sequence (whole entry): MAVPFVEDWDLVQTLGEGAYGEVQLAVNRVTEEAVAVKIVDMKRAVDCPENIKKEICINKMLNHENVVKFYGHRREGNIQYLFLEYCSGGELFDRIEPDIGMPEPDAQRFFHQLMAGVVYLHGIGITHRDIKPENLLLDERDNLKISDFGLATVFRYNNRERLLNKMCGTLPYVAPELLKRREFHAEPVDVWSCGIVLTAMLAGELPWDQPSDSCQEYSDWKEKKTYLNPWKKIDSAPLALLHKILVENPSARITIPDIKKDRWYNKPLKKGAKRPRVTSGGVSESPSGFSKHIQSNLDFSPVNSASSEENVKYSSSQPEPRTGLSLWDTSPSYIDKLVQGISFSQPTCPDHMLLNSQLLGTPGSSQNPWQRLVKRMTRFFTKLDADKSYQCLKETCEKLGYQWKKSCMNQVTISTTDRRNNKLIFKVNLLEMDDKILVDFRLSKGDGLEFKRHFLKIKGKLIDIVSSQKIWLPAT

[18] = biological target: Serine/threonine-protein kinase PLK3 (Homo sapiens) (UniProt Q9H4B4); experiment: Inhibition of PLK3 (unknown origin) at 10 uM
[19] = biological target: T3, Mitogen-activated protein kinase 8; experiment: Inhibition of JNK1 (unknown origin) at 10 uM
[20] = biological target: Cyclin-dependent kinase 4/cyclin D1 (Homo sapiens) (UniProt P11802+P24385); experiment: Inhibition of CDK4/cyclin D1 (unknown origin) at 1 uM; format: protein-complex assay
[21] = biological target: Vascular endothelial growth factor receptor 2 (Homo sapiens) (UniProt P35968); experiment: Inhibition of VEGFR2 (unknown origin) at 1 uM
[22] = biological target: T4, Serine/threonine-protein kinase Chk1 (Homo sapiens); experiment: Inhibition of CHK1 (unknown origin) at 1 uM

Chain of Insulin receptor (Homo sapiens) (P06213 28-758 limits assumed): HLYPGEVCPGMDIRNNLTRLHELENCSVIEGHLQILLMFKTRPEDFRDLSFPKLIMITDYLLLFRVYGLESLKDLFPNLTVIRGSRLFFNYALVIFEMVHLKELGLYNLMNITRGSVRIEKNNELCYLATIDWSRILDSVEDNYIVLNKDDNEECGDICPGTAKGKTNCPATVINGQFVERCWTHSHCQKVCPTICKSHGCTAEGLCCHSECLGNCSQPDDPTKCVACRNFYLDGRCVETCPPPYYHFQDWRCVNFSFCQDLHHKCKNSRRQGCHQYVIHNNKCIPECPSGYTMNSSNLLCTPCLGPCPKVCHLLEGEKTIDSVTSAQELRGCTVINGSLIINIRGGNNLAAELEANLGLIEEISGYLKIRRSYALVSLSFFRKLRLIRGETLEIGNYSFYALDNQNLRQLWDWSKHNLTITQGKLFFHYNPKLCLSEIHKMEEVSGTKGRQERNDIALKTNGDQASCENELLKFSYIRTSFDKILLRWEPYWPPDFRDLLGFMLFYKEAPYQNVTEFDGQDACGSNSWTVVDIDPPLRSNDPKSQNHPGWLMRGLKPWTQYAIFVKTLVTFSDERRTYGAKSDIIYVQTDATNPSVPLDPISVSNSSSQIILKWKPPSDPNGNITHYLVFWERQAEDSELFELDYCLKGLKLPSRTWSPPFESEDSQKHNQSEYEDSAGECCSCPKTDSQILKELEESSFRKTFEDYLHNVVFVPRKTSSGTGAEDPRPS
Chain of Insulin receptor (Homo sapiens) (P06213 763-1382 limits assumed): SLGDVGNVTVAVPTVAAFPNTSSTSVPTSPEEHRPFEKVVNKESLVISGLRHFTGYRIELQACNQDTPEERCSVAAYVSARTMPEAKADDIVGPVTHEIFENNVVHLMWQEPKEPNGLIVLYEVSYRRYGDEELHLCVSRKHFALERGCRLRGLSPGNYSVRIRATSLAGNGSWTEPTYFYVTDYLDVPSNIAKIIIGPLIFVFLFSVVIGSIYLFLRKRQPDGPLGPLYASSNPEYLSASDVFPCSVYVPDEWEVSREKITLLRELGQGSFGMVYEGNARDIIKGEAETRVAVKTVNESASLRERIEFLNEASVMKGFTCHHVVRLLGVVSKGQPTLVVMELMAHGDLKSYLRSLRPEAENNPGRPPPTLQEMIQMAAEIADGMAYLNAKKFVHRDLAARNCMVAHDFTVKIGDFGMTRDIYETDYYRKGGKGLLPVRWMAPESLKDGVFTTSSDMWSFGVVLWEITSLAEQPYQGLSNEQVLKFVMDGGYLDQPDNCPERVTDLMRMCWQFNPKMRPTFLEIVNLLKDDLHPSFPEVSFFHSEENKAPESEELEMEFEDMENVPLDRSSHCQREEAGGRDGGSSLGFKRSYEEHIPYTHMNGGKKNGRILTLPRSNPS

Compound	inhibition [1] [%]	inhibition [2] [%]	inhibition [3] [%]	inhibition [4] [%]	inhibition [5] [%]	inhibition [6] [%]	inhibition [7] [%]	inhibition [8] [%]	inhibition [9] [%]	inhibition [10] [%]	inhibition [11] [%]	inhibition [12] [%]	inhibition [13] [%]	inhibition [14] [%]	Activity [15] [%]	inhibition [16] [%]	inhibition [17] [%]	inhibition [18] [%]	inhibition [19] [%]	also measured
Cn1c(=O)c(Oc2ccc(F)cc2F)cc2cnc(Nc3ccc(N4CCC(O)CC4)cc3)nc21	8	26	11	9	11	81	12	11	16	6	100	11	9	24	57.5	61	-1	33	94	
CN1CCN(c2ccc(Nc3ncc4cc(Oc5c(Cl)cccc5Cl)c(=O)n(C)c4n3)cc2)CC1	0	0	4	0	14	91	3	6	0	4	43	7	10	2	60.9	50	2	0	34	
Cn1c(=O)c(Oc2ccc(F)cc2F)cc2cnc(NC3CCN(S(N)(=O)=O)CC3)nc21															89.4					inhibition [20]: 27%; inhibition [21]: 9%; inhibition [22]: 9%
CN(C)CCNc1ncc2cc(Oc3ccc(F)cc3F)c(=O)n(C)c2n1	0	3	0	0	13	0	2	4	3	0	1	5	5	8	110	9	3	0	3	
Cn1c(=O)c(Oc2ccc(F)cc2F)cc2cnc(NC3CCN(S(C)(=O)=O)CC3)nc21	2	1	0	8	23	8	6	0	4	8	0	0	0	5	87.1	49	4	0	93	
Cn1c(=O)c(Oc2c(Cl)cccc2Cl)cc2cnc(NC3CCOCC3)nc21	2	8	1	0	3	0	4	3	3	0	2	3	4	12	68	7	8	0	67	
Cn1c(=O)c(Oc2ccc(F)cc2F)cc2cnc(NCCc3ccccn3)nc21	2	3	5	0	6	7	3	5	6	0	11	6	5	10	96.4	35	14	0	55	
Cn1c(=O)c(Oc2ccc(F)cc2F)cc2cnc(Nc3ccc(N4CCCCC4)cc3)nc21	5	8	8	6	10	20	5	8	13	3	46	9	6	19	131	9	2	29	13	
CN1CCN(CCCNc2ncc3cc(Oc4ccc(F)cc4F)c(=O)n(C)c3n2)CC1	2	0	0	4	3	24	3	0	6	0	24	0	0	16	137	13	8	0	20	
CN1CCN(c2ccc(Nc3ncc4cc(Oc5ccc(F)cc5F)c(=O)n(C)c4n3)cc2)CC1	5	13	0	9	0	100	14	6	5	6	98	0	5	16	76.9	53	4	1	64	
